The target in assay [1] is His6-TEV-PDGFRβ (557-1016) (Homo sapiens (Human), UniProt P09619). Put plainly: PDGFRβ HTRF Assay. The class given is biochemical. Conditions: read-out: PDGFR HTRF IC50. The procedure, abridged:
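Human PDGFRβ (557-1016) pre-incubated with compound for 30 min at RT in pH 7.5 HEPES/MgCl2/EGTA/Brij-35/DTT buffer. Reaction started with ATP and TK-biotin peptide, run 3 h at RT, then quenched with EDTA-containing Eu-cryptate antibody/streptavidin-XL665. HTRF 665/620 nm ratio read after 60 min; percent inhibition relative to DMSO and 10 μM imatinib controls.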
In general terms: TR-FRET usually uses a lanthanide donor and a delayed reading to cut background.

The target in assay [2] is Tb-labeled inactive PDGFRβ (Homo sapiens (Human), UniProt P09619). Put plainly: PDGFRβ LanthaScreen Assay. The class given is binding. Conditions: read-out: PDGFR Lantha IC50.
Sequence of Tb-labeled inactive PDGFRβ (P09619 33-1106): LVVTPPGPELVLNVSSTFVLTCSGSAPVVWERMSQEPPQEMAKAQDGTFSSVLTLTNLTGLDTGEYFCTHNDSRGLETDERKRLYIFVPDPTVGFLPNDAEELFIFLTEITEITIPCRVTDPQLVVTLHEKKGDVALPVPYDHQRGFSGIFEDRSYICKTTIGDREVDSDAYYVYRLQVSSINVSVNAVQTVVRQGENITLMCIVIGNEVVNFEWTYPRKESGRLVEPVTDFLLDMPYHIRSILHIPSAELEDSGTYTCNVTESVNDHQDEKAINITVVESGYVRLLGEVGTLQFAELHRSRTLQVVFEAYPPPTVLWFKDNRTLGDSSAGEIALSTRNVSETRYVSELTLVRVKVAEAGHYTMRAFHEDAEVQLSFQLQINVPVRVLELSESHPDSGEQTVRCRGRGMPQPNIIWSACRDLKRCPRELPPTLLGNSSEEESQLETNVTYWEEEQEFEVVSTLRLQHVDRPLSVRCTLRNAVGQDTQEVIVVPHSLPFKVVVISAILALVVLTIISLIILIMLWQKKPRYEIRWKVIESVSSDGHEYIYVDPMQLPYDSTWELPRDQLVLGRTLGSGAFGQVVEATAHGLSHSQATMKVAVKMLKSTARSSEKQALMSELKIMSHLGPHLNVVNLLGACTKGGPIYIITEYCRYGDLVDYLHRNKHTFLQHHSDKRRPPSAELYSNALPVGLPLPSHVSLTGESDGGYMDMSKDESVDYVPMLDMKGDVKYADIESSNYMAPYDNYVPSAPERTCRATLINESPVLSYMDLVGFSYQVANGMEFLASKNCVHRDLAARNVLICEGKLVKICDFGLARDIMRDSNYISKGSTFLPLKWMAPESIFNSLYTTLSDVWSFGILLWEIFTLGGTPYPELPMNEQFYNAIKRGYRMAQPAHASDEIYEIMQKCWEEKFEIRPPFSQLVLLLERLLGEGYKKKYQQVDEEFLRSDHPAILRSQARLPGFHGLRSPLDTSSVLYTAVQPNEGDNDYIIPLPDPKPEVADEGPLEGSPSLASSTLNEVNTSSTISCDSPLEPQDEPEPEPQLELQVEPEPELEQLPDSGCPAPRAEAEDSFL
For a further assay, the target named is PDGFRβ (Rattus norvegicus (Rat), UniProt Q05030). Put plainly: PDGFRβ Cellular Assay (PDGFRb P-Y751 HTRF in A10 cells stimulated with PDGF-BB). As to conditions: read-out: PDGFR Cellular IC50. The class given is cell-based. An outline of the steps: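 Rat A10 cells, plated overnight, were treated with compound for 3 hours, then stimulated with PDGF-BB (working stock 100 ng/mL in 10% FBS medium). After lysis, PDGFRβ P-Y751 was detected by HTRF.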
Sequence of PDGFRβ (Q05030 32-1097): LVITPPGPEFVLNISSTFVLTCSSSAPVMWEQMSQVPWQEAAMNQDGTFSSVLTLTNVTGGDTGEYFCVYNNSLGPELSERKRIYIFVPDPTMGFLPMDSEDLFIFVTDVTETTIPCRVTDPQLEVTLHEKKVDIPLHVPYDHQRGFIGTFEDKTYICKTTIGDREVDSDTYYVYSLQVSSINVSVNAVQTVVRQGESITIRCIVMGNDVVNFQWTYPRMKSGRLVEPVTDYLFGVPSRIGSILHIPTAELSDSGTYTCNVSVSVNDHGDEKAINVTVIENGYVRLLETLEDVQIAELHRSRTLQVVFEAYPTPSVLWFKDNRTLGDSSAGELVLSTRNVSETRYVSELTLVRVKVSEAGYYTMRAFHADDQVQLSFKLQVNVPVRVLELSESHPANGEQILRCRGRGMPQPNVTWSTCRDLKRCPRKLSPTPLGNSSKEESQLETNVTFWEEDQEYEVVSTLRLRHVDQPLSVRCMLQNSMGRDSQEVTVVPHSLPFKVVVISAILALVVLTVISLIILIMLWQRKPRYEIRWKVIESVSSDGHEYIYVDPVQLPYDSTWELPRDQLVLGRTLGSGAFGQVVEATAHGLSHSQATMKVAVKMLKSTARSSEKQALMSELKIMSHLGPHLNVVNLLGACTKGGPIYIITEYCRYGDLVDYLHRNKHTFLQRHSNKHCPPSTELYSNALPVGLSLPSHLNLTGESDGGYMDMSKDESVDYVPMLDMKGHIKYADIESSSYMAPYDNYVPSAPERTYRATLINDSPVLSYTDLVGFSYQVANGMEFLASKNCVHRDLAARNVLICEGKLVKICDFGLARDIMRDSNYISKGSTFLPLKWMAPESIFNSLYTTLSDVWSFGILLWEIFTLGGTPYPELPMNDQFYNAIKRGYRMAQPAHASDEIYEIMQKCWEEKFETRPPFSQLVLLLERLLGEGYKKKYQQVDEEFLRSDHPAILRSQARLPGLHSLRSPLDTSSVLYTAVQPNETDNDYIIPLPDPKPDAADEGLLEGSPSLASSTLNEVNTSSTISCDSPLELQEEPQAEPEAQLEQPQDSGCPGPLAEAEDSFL

Molecules are shown by their SMILES.

Sequence of His6-TEV-PDGFRβ (557-1016) (P09619 557-1016): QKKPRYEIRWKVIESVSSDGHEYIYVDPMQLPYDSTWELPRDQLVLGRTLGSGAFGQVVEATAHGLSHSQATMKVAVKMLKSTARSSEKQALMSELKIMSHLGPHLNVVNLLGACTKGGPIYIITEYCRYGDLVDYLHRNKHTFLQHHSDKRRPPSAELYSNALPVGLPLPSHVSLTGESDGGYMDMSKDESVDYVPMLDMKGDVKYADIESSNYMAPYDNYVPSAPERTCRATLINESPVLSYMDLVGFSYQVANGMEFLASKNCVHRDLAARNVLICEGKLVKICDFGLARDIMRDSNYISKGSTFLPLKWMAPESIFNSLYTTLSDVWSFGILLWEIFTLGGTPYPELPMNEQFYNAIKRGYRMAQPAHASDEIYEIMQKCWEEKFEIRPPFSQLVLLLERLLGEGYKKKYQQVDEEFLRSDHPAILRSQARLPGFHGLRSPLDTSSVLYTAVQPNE

Broadly, the IC50 is the concentration at which inhibition is half-maximal. For `COCCn1nc(C)c(-c2cn3ncc(C(=O)Nc4cc(NC(=O)CCN5CCC6(CC6)C5)cnc4C)c3s2)c1C` [Example 103, N-(5-(3-(5-azaspiro[2.4]heptan-5-yl)propanamido)-2-methylpyridin-3-yl)-2-(1-(2-methoxyethyl)-3,5-dimethyl-1H-pyrazol-4-yl)pyrazolo[5,1-b]thiazole-7-carboxamide], the IC50 was 0.8 nM in assay [1], 8.6 nM in assay [2] and 38.8 nM on PDGFRβ.

As to `Cc1ncc(C(=O)NCCN2CC(C)(C)C2)cc1NC(=O)c1cnn2cc(-c3cccnc3)sc12` [Example 158, N-(5-((2-(3,3-dimethylazetidin-1-yl)ethyl)carbamoyl)-2-methylpyridin-3-yl)-2-(pyridin-3-yl)pyrazolo[5,1-b]thiazole-7-carboxamide], the IC50 in assay [1] was found to be 0.9 nM; in assay [2], 32.5 nM; on PDGFRβ, 156 nM.

Turning to `Cc1ncc(C(=O)NCCN2CCCC2(C)C)cc1NC(=O)c1cnn2cc(-c3cn(C)cn3)sc12` [Example 163, N-(5-((2-(2,2-dimethylpyrrolidin-1-yl)ethyl)carbamoyl)-2-methylpyridin-3-yl)-2-(1-methyl-1H-imidazol-4-yl)pyrazolo[5,1-b]thiazole-7-carboxamide], the results for the half-inhibitory concentration (IC50) (in assay [1]; in assay [2]; on PDGFRβ) were 0.3 nM, 3.9 nM and 160 nM, respectively.

On to `Cc1ncc(C(=O)NCCN2C3CCC2COC3)cc1NC(=O)c1cnn2cc(-c3cnn(C)c3)sc12` [Example 122, N-(5-((2-(3-oxa-8-azabicyclo[3.2.1]octan-8-yl)ethyl)carbamoyl)-2-methylpyridin-3-yl)-2-(1-methyl-1H-pyrazol-4-yl)pyrazolo[5,1-b]thiazole-7-carboxamide], for which the IC50 in assay [1] is 0.3 nM; in assay [2], 2.8 nM; on PDGFRβ it was 19.4 nM.

Regarding `COCCn1nc(C)c(-c2cn3ncc(C(=O)Nc4cc(NC(=O)CCN5CC6CCC(C5)O6)cnc4C)c3s2)c1C` [Example 102, N-(5-(3-(8-oxa-3-azabicyclo[3.2.1]octan-3-yl)propanamido)-2-methylpyridin-3-yl)-2-(1-(2-methoxyethyl)-3,5-dimethyl-1H-pyrazol-4-yl)pyrazolo[5,1-b]thiazole-7-carboxamide], the IC50 in assay [1] came out at 1.3 nM; in assay [2] it was 1 nM; at PDGFRβ, 21.8 nM.

For the molecule `Cc1ncc(C(=O)NCCN2C3CCC2CC3)cc1NC(=O)c1cnn2cc(-c3cnn(C)c3C)sc12` [Example 172, N-(5-((2-(7-azabicyclo[2.2.1]heptan-7-yl)ethyl)carbamoyl)-2-methylpyridin-3-yl)-2-(1,5-dimethyl-1H-pyrazol-4-yl)pyrazolo[5,1-b]thiazole-7-carboxamide], the IC50 was found to be 0.3 nM in assay [1], 3 nM in assay [2] and 66.6 nM at PDGFRβ.

With `Cc1ncc(C(=O)NCCN2CC(F)(F)C2)cc1NC(=O)c1cnn2cc(-c3cnn(C)c3)sc12` [Example 125, N-(5-((2-(3,3-difluoroazetidin-1-yl)ethyl)carbamoyl)-2-methylpyridin-3-yl)-2-(1-methyl-1H-pyrazol-4-yl)pyrazolo[5,1-b]thiazole-7-carboxamide], the IC50 stood at 0.3 nM in assay [1], 5.3 nM in assay [2] and 47.6 nM at PDGFRβ.

Take `Cc1ncc(C(=O)NCCN2CCCC2(C)C)cc1NC(=O)c1cnn2cc(-c3ccncc3)sc12` [Example 7, N-(5-((2-(2,2-dimethylpyrrolidin-1-yl)ethyl)carbamoyl)-2-methyl-pyridin-3-yl)-2-(pyridin-4-yl)pyrazolo[5,1-b]thiazole-7-carboxamide]: the IC50 in assay [1] amounted to 0.5 nM; in assay [2], 8.3 nM; at PDGFRβ, 15.8 nM.

In the case of `Cc1ncc(C(=O)NCCN2CCCC2(C)C)cc1NC(=O)c1cnn2cc(-c3cnn(C4CC4)c3)sc12` [Example 6, 2-(1-cyclopropyl-1H-pyrazol-4-yl)-N-(5-((2-(2,2-dimethylpyrrolidin-1-yl)ethyl)carbamoyl)-2-methylpyridin-3-yl)pyrazolo[5,1-b]thiazole-7-carboxamide], the IC50 in assay [1] is 0.2 nM; in assay [2] it was 4.7 nM; on PDGFRβ, 7.7 nM.
